Reference: patent US20210238192A1, “VASCULAR ADHESION PROTEIN-1 (VAP-1) MODULATORS AND THERAPEUTIC USES THEREOF” (Blade Therapeutics, Inc., priority 2018, published 2021)
Structures can show the parent of a compound that is named as a salt.

What was measured:
Assay type in all cases: biochemical
[1] = target: T1, Human VAP-1 (Homo sapiens, UniProt Q16853); assay: VAP-1 inhibition assay (Amplex Red continuous fluorescence assay); conditions: 30 min pre-incubation at 37° C.; substrate benzylamine; read-out: Human VAP-1 IC50
T1 sequence (Q16853 1-763): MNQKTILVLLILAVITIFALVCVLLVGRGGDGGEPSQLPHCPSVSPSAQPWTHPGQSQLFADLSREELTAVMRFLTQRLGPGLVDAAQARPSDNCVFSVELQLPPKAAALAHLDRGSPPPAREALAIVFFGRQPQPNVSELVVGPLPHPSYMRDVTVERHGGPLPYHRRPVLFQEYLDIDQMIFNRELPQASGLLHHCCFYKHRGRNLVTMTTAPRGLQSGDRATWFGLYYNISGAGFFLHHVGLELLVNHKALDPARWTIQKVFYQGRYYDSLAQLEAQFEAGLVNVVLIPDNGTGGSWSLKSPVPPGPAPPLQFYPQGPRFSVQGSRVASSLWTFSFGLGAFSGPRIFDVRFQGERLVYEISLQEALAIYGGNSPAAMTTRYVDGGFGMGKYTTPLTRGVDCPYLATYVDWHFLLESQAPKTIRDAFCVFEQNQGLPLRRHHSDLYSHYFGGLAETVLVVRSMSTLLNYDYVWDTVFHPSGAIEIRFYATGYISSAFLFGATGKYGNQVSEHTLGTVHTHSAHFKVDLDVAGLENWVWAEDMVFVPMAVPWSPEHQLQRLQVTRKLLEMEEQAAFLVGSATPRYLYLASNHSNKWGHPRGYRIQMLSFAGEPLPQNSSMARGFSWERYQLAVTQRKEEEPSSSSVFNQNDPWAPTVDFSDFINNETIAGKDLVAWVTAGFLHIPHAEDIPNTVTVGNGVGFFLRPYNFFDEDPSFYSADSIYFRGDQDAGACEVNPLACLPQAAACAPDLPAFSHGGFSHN
Experimental: (§1) VAP-1, DAO, MAO-A, MAO-B, and HRP activity and inhibition thereof was assessed by means of a continuous fluorescence assay. The Amplex Red Hydrogen Peroxide/Peroxidase Assay (ThermoFisher) was optimized for detecting amine oxidase (AO) activity. In an enzyme-coupled reaction, the H2O2 generated by AO reacts 1:1 with Amplex Red reagent to produce fluorescent product resorufin.
(§2) Assays were typically setup in black 384-well plates using automated liquid handling as follows. VAP-1/MAO assay buffer contains […] sodium phosphate, pH 7.4; DAO assay buffer contains 50 mM HEPES, pH 7.5; HRP assay buffer contains 100 mM CHES, 1 mM MgCl2, 50 mM NaCl, 0.05% BSA, pH 9.0. Inhibitors were serially diluted in DMSO and used to setup 2× mixtures with AO in the aforementioned buffer. After 30 min pre-incubation at 37° C. (VAP-1, HRP) or room temp (DAO, MAO), the reaction was initiated by adding a 2× mix of Amplex Red, HRP (coupling enzyme), and substrate (benzylamine, histamine, tyramine, benzylamine, H2O2, for VAP-1, DAO, MAO-A, MAO-B, and HR, respectively) in the same buffer. Reaction progress curve data were typically collected for 5 min using excitation/emission wavelengths of 510 nm/565 nm on FLIPR-Tetra plate readers (Molecular Devices Inc). Reaction rates were calculated from progress curve slopes typically over 60-150 sec. Dose response curves (rate vs. log inhibitor concentration) were typically fit to a 4-parameter logistic function to extract IC50 values.

[2] = target: T2, Human MAO-A (Homo sapiens, UniProt P21397); assay: MAO-A inhibition (Amplex Red continuous fluorescence assay); conditions: 30 min pre-incubation at room temp; substrate tyramine; read-out: Human MAO-A IC50
T2 sequence (P21397 1-527): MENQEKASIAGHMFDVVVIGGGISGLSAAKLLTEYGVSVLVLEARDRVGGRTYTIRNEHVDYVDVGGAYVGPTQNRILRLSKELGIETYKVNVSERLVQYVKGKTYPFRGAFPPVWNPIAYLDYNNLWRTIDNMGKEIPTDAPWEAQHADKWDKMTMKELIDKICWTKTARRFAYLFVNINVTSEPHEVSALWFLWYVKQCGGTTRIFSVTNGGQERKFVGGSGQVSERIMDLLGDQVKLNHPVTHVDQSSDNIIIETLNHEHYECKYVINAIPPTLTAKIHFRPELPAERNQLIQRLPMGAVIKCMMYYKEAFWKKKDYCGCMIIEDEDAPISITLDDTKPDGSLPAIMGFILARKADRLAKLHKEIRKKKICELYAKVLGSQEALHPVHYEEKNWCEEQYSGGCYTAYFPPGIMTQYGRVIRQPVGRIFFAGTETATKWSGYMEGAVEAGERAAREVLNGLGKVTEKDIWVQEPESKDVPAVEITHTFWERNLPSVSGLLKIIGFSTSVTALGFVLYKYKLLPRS
Experimental: as §1, §2

[3] = target: T3, Human MAO-B (Homo sapiens, UniProt P27338); assay: MAO-B inhibition (Amplex Red continuous fluorescence assay); conditions: 30 min pre-incubation at room temp; substrate benzylamine; read-out: Human MAO-B IC50
T3 sequence (P27338 1-520): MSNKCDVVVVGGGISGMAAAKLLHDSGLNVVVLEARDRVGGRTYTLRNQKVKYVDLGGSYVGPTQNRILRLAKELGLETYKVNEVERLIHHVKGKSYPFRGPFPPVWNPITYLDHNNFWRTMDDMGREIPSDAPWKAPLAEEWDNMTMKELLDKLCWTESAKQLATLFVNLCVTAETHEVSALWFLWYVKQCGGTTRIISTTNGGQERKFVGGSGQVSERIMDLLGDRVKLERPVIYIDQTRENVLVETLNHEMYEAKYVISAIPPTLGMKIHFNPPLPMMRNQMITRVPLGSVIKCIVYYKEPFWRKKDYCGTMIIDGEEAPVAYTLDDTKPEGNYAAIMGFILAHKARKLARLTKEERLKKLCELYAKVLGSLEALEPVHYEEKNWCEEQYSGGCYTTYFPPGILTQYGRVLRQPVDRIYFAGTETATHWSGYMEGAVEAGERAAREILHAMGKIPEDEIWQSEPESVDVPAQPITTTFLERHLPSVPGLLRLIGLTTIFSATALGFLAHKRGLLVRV
Experimental: as §1, §2

[4] = target: T4, Human DAO (Homo sapiens, UniProt P19801); assay: DAO inhibition (Amplex Red continuous fluorescence assay); conditions: 30 min pre-incubation at room temp; substrate histamine; read-out: Human DAO IC50
T4 sequence (P19801 20-751): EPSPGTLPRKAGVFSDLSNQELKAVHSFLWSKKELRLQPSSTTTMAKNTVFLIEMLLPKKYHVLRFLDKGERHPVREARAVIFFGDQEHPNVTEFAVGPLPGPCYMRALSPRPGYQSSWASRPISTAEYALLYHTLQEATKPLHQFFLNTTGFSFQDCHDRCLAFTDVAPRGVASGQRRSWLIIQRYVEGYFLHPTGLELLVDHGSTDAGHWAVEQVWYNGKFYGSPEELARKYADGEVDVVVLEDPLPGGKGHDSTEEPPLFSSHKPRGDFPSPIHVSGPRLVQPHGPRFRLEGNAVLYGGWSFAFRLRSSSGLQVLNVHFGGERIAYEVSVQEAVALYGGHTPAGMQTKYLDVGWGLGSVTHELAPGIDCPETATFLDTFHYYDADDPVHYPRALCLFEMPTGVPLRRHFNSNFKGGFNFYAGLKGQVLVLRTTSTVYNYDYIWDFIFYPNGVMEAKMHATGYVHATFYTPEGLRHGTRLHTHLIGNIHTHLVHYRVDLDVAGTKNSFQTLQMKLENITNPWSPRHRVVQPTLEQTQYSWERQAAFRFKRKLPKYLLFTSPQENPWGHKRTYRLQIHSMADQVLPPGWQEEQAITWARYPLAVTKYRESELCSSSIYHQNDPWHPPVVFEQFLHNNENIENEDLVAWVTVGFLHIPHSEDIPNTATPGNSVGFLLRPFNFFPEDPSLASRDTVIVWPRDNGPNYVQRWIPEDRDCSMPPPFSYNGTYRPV
Experimental: as §1, §2

| IC50 [1] [µM] | IC50 [2] [µM] | IC50 [3] [µM] | IC50 [4] [µM] | SMILES |
| --- | --- | --- | --- | --- |
| < 3 | < 3 | < 3 | < 3 | NC/C(=C/F)COc1ccc(-c2nc3ccccc3[nH]2)cc1 [Compound 11, (Z)-2-((4-(1H-benzo[d]imidazol-2-yl)phenoxy)methyl)-3-fluoroprop-2-en-1-amine hydrochloride] |
| < 3 | < 3 | < 3 | 3 to 10 | CCOC(=O)Nc1ccc(OC/C(=C/F)CN)cc1 [Compound 13] |
| < 3 | < 3 | < 3 | 3 to 10 | NC/C(=C\F)COc1cccc2c1OCO2 [Compound 14, (E)-2-((benzo[d][1,3]dioxol-4-yloxy)methyl)-3-fluoroprop-2-en-1-amine hydrochloride] |
| < 3 | < 3 | < 3 | < 3 | NC/C(=C/F)COc1cccc2c1OCO2 [Compound 16, (Z)-2-((benzo[d][1,3]dioxol-4-yloxy)methyl)-3-fluoroprop-2-en-1-amine hydrochloride] |
| < 3 | < 3 | < 3 | 3 to 10 | CC(C)NC(=O)Nc1ccc(OC/C(=C/F)CN)cc1 [Compound 18, (E)-1-(4-((2-(aminomethyl)-3-fluoroalkyl)oxy)phenyl)-3-isopropylurea hydrochloride] |
| < 3 | 3 to 10 | < 3 | < 3 | NC/C(=C\F)COc1ccc(-c2nccs2)cc1 [Compound 19, (E)-3-fluoro-2-((4-(thiazol-2-yl)phenoxy)methyl)prop-2-en-1-amine hydrochloride] |
| < 3 | < 3 | < 3 | < 3 | NC/C(=C/F)COc1ccc(-c2nccs2)cc1 [Compound 20, (Z)-3-Fluoro-2-((4-(Thiazol-2-Yl)Phenoxy)Methyl)Prop-2-En-1-Amine Hydrochloride] |
| < 3 | 3 to 10 | > 10 | > 10 | NC/C(=C\F)CNC(=O)c1ccccc1 [Compound 21, (E)-N-(2-(aminomethyl)-3-fluoroalkyl)benzamide hydrochloride] |
| < 3 | > 10 | 3 to 10 | > 10 | CCNC(=O)N(C)c1ccc(OC/C(=C/F)CN)cc1 [Compound 23, (E)-1-(4-((2-(aminomethyl)-3-fluoroalkyl)oxy)phenyl)-3-ethyl-1-methylurea hydrochloride] |
| < 3 | 3 to 10 | < 3 | > 10 | CCN(CC)C(=O)Nc1ccc(OC/C(=C/F)CN)cc1 [Compound 24, (E)-3-(4-((2-(aminomethyl)-3-fluoroalkyl)oxy)phenyl)-1,1-diethylurea hydrochloride] |
| < 3 | 3 to 10 | < 3 | < 3 | NC/C(=C\F)COc1ccc(-c2ncco2)cc1 [Compound 25, (E)-3-fluoro-2-((4-(oxazol-2-yl)phenoxy)methyl)prop-2-en-1-amine hydrochloride] |
| < 3 | 3 to 10 | < 3 | > 10 | NC/C(=C\F)CNCc1ccccc1 [Compound 26, (E)-N^1-benzyl-2-(fluoromethylene)propane-1,3-diamine] |
| < 3 | > 10 | < 3 | < 3 | Cn1ccnc1-c1ccc(OC/C(=C\F)CN)cc1 [Compound 28, hydrochloride] |
| < 3 | < 3 | < 3 | < 3 | NC/C(=C\F)COc1ccc(-c2cocn2)cc1 [Compound 29, (E)-3-fluoro-2-((4-(oxazol-4-yl)phenoxy)methyl)prop-2-en-1-amine hydrochloride] |
| < 3 | < 3 | < 3 | < 3 | NC/C(=C/F)COc1ccc(-c2cocn2)cc1 [Compound 30, (Z)-3-fluoro-2-((4-(oxazol-4-yl)phenoxy)methyl)prop-2-en-1-amine hydrochloride] |
| < 3 | < 3 | < 3 | > 10 | NC/C(=C\F)COc1ccc(-c2ccccc2)cc1 [Compound 33, (E)-2-(([1,1′-biphenyl]-4-yloxy)methyl)-3-fluoroprop-2-en-1-amine hydrochloride] |
| < 3 | < 3 | < 3 | < 3 | NC/C(=C/F)COc1ccc(-c2ccccc2)cc1 [Compound 34, (Z)-2-(([1,1′-biphenyl]-4-yloxy)methyl)-3-fluoroprop-2-en-1-amine hydrochloride] |

| SMILES | IC50 [1] [µM] | IC50 [2] [µM] | IC50 [3] [µM] | IC50 [4] [µM] |
| --- | --- | --- | --- | --- |
| NC/C(=C\F)Cn1ccc2ccccc21 [Compound 15, (E)-2-((1H-indol-1-yl)methyl)-3-fluoroprop-2-en-1-amine hydrochloride] | < 3 | < 3 | < 3 | > 10 |
